Source: patent US10143638B2, “Method of treating skin with ingenol mebutate” (LEO Laboratories Limited, priority 2009, dated 2018)

Test system: dermal fibroblasts
Assay: De novo hyaluronan molecular weight ([3H]-glucosamine incorporation, gel filtration)
Format: cell-based, human
Conditions: PEP005 0.01-10 μg/ml, presence or absence of TGF-β1, day 1 and day 3
Procedure: Hyaluronan molecular weight sizing, following dermal fibroblast synthesis, was performed as previously described (Meran et al, 2008; Simpson et al, 2009). Dermal fibroblasts were seeded in 6-well tissue culture plates, in PEP005-free, Fibroblast-Serum Containing Medium (2 ml), at 1.5×10^5 cells/well. Dermal fibroblasts were maintained at 37° C., in a 5% CO2/95% air atmosphere, for 48 h, prior to washing in phosphate buffered saline (PBS, 2×2 ml) and maintenance in serum-free, Fibroblast-Serum Containing Medium (2 ml), for a further 48 h. At 48 h, the serum-free, Fibroblast-Serum Containing Medium was replenished with serum-free, Fibroblast-Serum Containing Medium (2 ml), containing 0 μg/ml, 0.01 μg/ml, 0.1 μg/ml, 1 μg/ml, 10 μg/ml or 100 μg/ml PEP005, +/−TGF-β1 (10 ng/ml) (three culture wells per PEP005 concentration), in addition to [^3H]-glucosamine (20 μCi/ml, G.E. Healthcare). The dermal fibroblasts were maintained at 37° C., in a 5% CO2/95% air atmosphere, for 24 h or 72 h. […]
Aliquots (20 μl×3) of each Extract fraction were transferred into scintillation vials, followed by the addition of 70% ethanol (600 μl) and liquid scintillant (4 ml). Scintillation vials were vortexed and [^3H]-incorporation quantified using a Packard Tri-Carb 1900CA Liquid Scintillation Analyzer (Perkin Elmer), with values obtained being expressed as disintegrations per minute (dpm). […]

## C/C=C(/C)C(=O)O[C@H]1C(C)=C[C@]23C(=O)[C@@H](C=C(CO)[C@@H](O)[C@]12O)[C@H]1[C@@H](C[C@H]3C)C1(C)C [PEP005, ingenol-3-angelate]
  molecular weight of hyaluronan synthesized: predominantly of high (>1.5×10^6 Da) and medium (<1.5×10^6-4×10^5 Da) molecular weight
